Series [1] concerns the target T1, Tyrosine-protein kinase receptor UFO (Homo sapiens, UniProt P30530).
T1 sequence (P30530 whole entry): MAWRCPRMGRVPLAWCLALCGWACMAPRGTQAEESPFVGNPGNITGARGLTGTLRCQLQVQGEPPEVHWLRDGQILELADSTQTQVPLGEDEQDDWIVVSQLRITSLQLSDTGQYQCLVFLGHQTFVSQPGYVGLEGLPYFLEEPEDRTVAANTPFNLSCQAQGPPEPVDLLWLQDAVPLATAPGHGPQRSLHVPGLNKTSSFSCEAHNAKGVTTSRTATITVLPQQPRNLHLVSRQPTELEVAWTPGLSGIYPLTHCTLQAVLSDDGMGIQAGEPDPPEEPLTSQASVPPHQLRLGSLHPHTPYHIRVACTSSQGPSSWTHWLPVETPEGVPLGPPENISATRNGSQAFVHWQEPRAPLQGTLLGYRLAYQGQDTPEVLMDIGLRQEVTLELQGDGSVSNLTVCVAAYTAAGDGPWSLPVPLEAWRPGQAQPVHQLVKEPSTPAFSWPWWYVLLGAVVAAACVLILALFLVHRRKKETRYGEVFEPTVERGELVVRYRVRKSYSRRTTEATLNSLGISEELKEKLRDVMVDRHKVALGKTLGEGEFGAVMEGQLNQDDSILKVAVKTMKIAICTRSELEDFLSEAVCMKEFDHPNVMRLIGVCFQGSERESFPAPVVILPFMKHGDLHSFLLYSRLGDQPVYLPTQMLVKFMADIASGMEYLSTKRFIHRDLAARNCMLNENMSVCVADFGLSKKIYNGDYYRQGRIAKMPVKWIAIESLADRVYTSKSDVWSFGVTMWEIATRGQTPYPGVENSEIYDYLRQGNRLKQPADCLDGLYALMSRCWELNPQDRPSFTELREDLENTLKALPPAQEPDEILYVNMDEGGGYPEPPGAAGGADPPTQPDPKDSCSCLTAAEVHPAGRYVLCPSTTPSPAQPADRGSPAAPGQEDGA
The series is described as follows: Inhibition of Axl.

In series [2] the target is Fibroblast growth factor receptor 1 (Homo sapiens, UniProt P11362). Briefly: Inhibition of FGFR1.
Chain of Fibroblast growth factor receptor 1 (P11362 whole entry): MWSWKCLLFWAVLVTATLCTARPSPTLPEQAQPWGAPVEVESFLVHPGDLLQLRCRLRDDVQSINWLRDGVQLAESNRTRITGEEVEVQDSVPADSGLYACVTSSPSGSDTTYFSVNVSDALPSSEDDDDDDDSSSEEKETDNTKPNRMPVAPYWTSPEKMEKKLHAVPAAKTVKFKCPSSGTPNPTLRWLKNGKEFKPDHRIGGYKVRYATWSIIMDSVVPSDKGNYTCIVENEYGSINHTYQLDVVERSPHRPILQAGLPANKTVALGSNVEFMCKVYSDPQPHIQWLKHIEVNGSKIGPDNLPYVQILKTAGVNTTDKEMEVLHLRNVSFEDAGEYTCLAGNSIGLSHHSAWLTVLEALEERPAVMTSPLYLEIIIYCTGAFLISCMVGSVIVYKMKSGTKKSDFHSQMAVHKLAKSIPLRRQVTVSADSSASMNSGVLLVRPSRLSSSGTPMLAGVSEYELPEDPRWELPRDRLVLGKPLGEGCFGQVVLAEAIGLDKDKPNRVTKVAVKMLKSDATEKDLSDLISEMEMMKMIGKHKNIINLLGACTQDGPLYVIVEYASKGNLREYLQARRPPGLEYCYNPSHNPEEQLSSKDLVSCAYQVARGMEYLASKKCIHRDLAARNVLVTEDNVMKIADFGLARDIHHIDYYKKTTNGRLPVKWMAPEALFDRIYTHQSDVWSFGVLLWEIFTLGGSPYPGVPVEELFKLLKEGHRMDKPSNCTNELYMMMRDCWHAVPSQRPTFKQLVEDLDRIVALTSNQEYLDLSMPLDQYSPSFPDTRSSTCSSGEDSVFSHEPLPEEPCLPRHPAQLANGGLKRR
The target of series [3] is Serine/threonine-protein kinase PAK 4 (Homo sapiens, UniProt O96013). Briefly: Inhibition of Pak4.
Chain of Serine/threonine-protein kinase PAK 4 (O96013 whole entry): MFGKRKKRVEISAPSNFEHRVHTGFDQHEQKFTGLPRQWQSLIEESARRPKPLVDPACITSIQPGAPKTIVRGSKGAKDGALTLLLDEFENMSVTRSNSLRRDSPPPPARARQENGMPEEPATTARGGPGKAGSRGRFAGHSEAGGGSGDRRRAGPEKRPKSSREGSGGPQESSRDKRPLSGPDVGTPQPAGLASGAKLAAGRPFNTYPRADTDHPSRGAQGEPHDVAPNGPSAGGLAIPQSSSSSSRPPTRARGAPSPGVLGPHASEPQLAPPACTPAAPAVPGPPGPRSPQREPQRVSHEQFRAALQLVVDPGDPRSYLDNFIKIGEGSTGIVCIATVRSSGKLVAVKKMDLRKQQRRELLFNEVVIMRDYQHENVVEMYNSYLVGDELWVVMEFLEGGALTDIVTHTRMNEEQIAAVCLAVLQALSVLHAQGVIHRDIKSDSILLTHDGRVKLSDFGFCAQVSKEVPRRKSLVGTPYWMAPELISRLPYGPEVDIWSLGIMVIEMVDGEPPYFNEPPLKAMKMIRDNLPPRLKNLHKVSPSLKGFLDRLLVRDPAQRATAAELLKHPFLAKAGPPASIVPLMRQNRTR
A further series concerns the target Cytochrome P450 2D6 (Homo sapiens, UniProt P10635). Briefly: Inhibition of CYP2D6 using dextromethorphan as substrate. The series is classed as ADME.
Series [4] is described as follows: Inhibition of PKA.
The target of series [5] is MAP kinase-activated protein kinase 2 (Homo sapiens, UniProt P49137). The series is described as follows: Inhibition of MAPKAP-2.
Chain of MAP kinase-activated protein kinase 2 (P49137 whole entry): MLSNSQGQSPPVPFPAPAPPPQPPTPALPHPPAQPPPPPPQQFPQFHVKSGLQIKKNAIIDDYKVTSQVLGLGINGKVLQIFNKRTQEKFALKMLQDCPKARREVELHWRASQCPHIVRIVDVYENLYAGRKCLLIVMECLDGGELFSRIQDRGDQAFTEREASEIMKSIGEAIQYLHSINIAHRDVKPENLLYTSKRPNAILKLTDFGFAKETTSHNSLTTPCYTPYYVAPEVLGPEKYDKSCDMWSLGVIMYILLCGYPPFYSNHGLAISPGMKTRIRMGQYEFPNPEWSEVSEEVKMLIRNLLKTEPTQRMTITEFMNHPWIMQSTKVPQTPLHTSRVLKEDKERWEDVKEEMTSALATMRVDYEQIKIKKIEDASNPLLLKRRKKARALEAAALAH
A short description of series [6]: Oral bioavailability in Sprague-Dawley rat. It counts as ADME, organism-based. To be noted: in vivo.
The target of series [7] is Tyrosine-protein kinase ABL1 (Homo sapiens, UniProt P00519). The series is described as follows: Inhibition of Abl.
Chain of Tyrosine-protein kinase ABL1 (P00519 whole entry): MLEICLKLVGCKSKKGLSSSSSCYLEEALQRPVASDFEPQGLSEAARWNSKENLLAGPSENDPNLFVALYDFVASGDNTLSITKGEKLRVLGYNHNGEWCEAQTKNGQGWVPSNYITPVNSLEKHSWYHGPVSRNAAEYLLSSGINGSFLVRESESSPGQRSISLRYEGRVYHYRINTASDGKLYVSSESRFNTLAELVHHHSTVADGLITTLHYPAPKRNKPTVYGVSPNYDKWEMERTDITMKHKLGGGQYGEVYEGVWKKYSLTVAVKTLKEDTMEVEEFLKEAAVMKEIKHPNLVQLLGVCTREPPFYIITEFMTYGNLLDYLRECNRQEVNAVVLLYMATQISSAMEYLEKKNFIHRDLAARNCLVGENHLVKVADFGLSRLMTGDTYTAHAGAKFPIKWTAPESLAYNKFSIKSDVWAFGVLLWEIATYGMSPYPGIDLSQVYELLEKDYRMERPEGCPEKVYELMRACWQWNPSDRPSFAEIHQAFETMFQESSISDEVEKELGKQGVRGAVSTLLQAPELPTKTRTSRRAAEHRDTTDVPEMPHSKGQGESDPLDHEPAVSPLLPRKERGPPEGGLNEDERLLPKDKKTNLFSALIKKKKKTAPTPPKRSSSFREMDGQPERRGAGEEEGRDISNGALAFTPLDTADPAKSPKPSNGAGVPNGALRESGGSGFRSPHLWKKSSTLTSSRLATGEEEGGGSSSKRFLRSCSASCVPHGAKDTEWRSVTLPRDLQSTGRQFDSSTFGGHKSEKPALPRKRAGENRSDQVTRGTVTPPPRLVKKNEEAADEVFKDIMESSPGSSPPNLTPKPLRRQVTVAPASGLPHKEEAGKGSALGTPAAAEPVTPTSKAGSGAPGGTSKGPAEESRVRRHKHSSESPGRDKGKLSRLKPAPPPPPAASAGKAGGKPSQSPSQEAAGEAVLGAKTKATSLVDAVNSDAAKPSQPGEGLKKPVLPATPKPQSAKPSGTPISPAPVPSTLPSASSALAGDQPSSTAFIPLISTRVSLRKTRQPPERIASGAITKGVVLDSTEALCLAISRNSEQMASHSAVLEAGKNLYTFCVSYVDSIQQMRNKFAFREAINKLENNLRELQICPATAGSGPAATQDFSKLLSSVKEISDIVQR
Series [8] concerns the target T2, Inhibitor of nuclear factor kappa-B kinase subunit epsilon (Homo sapiens, UniProt Q14164).
T2 sequence (Q14164 whole entry): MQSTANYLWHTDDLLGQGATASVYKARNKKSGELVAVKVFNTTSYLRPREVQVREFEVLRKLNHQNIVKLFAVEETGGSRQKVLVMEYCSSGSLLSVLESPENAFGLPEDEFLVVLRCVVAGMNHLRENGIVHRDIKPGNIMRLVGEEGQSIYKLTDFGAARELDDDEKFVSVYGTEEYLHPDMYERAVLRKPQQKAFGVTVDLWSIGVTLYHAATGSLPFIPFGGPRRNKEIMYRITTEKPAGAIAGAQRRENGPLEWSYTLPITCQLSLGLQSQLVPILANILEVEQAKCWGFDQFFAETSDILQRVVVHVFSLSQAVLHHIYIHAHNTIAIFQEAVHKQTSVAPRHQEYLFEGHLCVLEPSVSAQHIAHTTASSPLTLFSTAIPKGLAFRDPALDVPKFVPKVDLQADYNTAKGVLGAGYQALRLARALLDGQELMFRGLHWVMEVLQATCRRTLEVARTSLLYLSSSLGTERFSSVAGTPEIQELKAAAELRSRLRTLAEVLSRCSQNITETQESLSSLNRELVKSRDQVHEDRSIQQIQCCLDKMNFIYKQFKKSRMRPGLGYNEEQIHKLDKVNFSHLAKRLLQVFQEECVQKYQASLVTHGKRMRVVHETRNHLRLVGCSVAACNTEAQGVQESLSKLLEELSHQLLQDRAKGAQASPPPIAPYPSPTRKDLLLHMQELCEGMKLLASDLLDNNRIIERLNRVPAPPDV
The series is described as follows: Inhibition of IKKi.

The target of series [9] is T3, Serine/threonine-protein kinase Chk1 (Homo sapiens, UniProt O14757).
T3 sequence (O14757 whole entry): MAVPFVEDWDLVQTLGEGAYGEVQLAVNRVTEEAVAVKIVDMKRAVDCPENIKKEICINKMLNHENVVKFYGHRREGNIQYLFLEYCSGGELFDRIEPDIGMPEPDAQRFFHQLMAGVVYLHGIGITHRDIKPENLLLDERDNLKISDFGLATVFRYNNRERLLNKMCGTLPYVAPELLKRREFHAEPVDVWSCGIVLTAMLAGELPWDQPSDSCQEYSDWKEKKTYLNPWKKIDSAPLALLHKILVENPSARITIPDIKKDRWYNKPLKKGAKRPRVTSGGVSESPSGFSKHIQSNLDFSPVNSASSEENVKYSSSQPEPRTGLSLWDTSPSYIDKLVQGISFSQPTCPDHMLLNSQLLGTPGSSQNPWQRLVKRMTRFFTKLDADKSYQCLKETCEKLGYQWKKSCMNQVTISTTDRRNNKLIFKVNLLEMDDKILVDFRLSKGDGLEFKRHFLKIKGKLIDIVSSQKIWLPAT
The series is described as follows: Inhibition of Chk1.

Series [10] has as its target Glycogen synthase kinase-3 beta (Homo sapiens, UniProt P49841). Briefly: Inhibition of Gsk3beta.
The target of series [11] is Tyrosine-protein kinase Lck (Homo sapiens, UniProt P06239). Briefly: Inhibition of Lck.
Chain of Tyrosine-protein kinase Lck (P06239 whole entry): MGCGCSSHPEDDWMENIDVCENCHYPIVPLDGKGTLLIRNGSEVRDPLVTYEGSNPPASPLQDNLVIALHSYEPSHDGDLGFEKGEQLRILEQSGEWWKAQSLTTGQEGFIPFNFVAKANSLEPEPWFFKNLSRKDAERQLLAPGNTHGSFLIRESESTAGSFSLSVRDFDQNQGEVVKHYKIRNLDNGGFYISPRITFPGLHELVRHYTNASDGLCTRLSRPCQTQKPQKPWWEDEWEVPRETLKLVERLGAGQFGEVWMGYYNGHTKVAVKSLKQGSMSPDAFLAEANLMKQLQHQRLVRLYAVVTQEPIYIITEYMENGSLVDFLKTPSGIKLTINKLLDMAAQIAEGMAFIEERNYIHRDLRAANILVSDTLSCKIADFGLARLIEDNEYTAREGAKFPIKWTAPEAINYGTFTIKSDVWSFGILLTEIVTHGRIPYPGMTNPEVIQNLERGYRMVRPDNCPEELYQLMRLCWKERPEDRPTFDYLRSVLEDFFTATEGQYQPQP
Series [12] in a line: Aqueous solubility of compound at pH 6.5. The series is classed as physicochemical.
Series [13] in a line: Inhibition of p38.
Series [14] in a line: Half life in human liver microsomes. The series is classed as ADME, Microsome.
A short description of series [15]: Clearance in po dosed Sprague-Dawley rat. The series is classed as ADME, organism-based. To be noted: in vivo.
The target of series [16] is Cyclin-dependent kinase 2 (Homo sapiens, UniProt P24941). The series is described as follows: Inhibition of Cdk2.
For series [17], the target named is Serine/threonine-protein kinase Chk2 (Homo sapiens, UniProt O96017). Briefly: Inhibition of Chk2.
Chain of Serine/threonine-protein kinase Chk2 (O96017 whole entry): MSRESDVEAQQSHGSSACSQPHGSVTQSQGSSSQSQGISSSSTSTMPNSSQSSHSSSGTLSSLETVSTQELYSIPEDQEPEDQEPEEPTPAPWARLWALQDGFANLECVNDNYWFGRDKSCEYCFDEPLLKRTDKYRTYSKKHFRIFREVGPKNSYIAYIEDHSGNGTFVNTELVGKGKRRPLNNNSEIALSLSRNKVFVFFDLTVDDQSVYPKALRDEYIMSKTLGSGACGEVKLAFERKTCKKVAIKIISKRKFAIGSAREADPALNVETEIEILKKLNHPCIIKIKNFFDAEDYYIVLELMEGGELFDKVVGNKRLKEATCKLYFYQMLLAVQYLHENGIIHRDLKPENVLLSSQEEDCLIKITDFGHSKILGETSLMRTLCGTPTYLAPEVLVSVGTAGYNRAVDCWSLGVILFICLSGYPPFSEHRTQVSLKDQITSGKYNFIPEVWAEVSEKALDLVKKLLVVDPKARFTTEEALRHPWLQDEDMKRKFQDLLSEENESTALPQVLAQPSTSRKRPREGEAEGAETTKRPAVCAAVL
The target in series [18] is Proto-oncogene tyrosine-protein kinase Src (Homo sapiens, UniProt P12931). Briefly: Inhibition of Src.
Chain of Proto-oncogene tyrosine-protein kinase Src (P12931 2-536 limits assumed): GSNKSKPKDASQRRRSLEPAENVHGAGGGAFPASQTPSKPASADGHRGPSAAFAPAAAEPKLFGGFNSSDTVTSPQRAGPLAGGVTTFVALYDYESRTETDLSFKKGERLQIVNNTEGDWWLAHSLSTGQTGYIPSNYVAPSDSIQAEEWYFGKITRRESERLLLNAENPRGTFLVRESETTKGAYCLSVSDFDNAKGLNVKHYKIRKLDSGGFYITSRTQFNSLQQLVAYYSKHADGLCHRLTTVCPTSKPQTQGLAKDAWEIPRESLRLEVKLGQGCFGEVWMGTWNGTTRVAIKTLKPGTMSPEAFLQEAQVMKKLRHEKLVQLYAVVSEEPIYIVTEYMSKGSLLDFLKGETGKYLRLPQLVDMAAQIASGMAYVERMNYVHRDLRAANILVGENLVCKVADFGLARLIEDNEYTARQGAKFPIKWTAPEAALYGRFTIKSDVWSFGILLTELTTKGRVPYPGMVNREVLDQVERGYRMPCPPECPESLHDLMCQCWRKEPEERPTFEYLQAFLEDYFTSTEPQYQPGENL
The nature of series [19]: Inhibition of CK2.
In another series the target is CYP2D6 (Homo sapiens, UniProt P10635). Briefly: Inhibition of CYP2D6 using dextromethorphan as substrate at 3 uM. It counts as ADME. The following applies: probe dextromethorphan.
Another series addresses Insulin receptor (Homo sapiens, UniProt P06213). Briefly: Inhibition of INSR.
Series [20] deals with Mitogen-activated protein kinase 1 (Homo sapiens, UniProt P28482). Briefly: Inhibition of Erk2.
The target of series [21] is Hepatocyte growth factor receptor (Homo sapiens, UniProt P08581). The series is described as follows: Inhibition of HGFR.

We go through four compounds from ChEMBL document CHEMBL1933021, “Novel and selective spiroindoline-based inhibitors of Sky kinase” (Bioorg Med Chem Lett, 2012).

The structures appear in SMILES notation. pIC50: −log10 of the molar value. ≈ marks a conversion by molar mass, not a printed value. Some results are limits rather than exact numbers.

Chain of Glycogen synthase kinase-3 beta (P49841 whole entry): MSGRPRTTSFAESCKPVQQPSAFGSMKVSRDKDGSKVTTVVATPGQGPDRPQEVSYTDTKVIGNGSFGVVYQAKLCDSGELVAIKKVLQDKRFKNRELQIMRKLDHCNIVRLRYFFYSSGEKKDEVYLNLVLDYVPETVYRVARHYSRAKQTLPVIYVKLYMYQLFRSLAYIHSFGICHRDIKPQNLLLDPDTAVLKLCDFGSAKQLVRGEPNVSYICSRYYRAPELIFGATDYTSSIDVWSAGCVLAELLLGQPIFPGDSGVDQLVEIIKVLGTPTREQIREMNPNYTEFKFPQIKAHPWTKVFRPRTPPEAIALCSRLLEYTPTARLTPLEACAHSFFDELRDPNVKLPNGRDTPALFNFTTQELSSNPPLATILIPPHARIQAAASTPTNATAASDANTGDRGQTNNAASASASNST

With `O=C(c1cc2ccc(F)cc2[nH]1)N1C[C@]2(CCN(C3CCNC3)C2)c2ccccc21` (stereo partly specified), the negative-log IC50 (pIC50) in series [1] was 5.28; in [2], less than 4.52; in series [3] it was less than 4.52; on Cytochrome P450 2D6, 6.18; in series [4], less than 4.52; in series [5], less than 4.52. Besides, the pIC50 in [7], in series [8], in series [9], in series [10], in [11] and in series [13] was less than 4.52 in each case. Besides, the pIC50 in [16], in series [17], in [18] and in series [19] was less than 4.52 in each case. In addition, the bioavailability in [6] was 11%. The concentration in solution in series [12] (solubility) was 7.8 µM (≈ 3.16 µg/mL). For the same compound, the half-life in series [14] came to 52 min. In series [15], the CL/F turned out to be 5 mL/min/kg.
As to `C[C@@H]1CCC(N2CC[C@]3(CN(C(=O)c4cc5ccc(F)cc5[nH]4)c4ccccc43)C2)CN1` (stereo partly specified), the pIC50 in series [1] is 4.62; in series [2] it was 4.64; in series [3] it was less than 4.52; in [4], 4.54; in [5] it was less than 4.52; in series [7] it was less than 4.52. Also, the pIC50 (in [8]; against Insulin receptor; in series [9]; in [10]; in series [13]; in series [16]) was less than 4.52 in each case. Further, the pIC50 in series [17], in [18], in series [19] and in series [20] was less than 4.52 throughout. Further, testing at 3 µM at CYP2D6 gave an inhibition of 94%. In series [12], the solubility stood at 11.7 µM (≈ 5.06 µg/mL). The same compound returned a half-life in series [14] of 44 min.
As to `O=C(c1cc2cc(F)ccc2[nH]1)N1C[C@]2(CCN(C3CCCNC3)C2)c2ccccc21` (stereo partly specified), the pIC50 in series [1] was 4.71; in [2], less than 4.52; in [3] it was less than 4.52; in series [4], less than 4.52; in series [5], less than 4.52; in series [7], less than 4.52. Also, the pIC50 in series [8], in series [9], in series [10], in [11], in [13] and in series [16] was less than 4.52 throughout. Further, the pIC50 in series [17], in series [18], in series [19] and in series [21] was less than 4.52 each time.
Turning to `C[C@@H]1CCC(N2CC[C@]3(CN(C(=O)c4cc5ccccc5[nH]4)c4ccccc43)C2)CN1` (stereo partly specified), the pIC50 was 4.74 in [1]; less than 4.52 in series [2]; less than 4.52 in [3]; less than 4.52 in series [4]; less than 4.52 in series [5]; less than 4.52 in series [7]. Further, the pIC50 in [8], in series [9], in [10], in series [11], in series [13] and in [16] was less than 4.52 throughout. In addition, the pIC50 in series [17], in series [18], in series [19] and in [21] was less than 4.52 throughout.
